Read-outs that look alike come from different tables or passages of the source.
Experiments:
B. anthracis Sterne = type: cell-based, Bacillus anthracis; conditions: B. anthracis Sterne growth inhibition
B. subtilis = B. subtilis growth inhibition assay; type: cell-based, Bacillus subtilis
HEK293 cells = assay: HEK293 cell growth inhibition assay; type: cell-based, human; conditions: HEK293 cell growth inhibition ED50, 24 hr incubation
S. aureus = S. aureus growth inhibition assay; type: cell-based, Staphylococcus aureus; conditions: S. aureus growth inhibition
Mycobacterium smegmatis = assay: M. smegmatis growth inhibition assay; type: cell-based

Compound | Ba ED50 (B. anthracis Sterne) [µg/mL] | Ba ED50 (B. anthracis Sterne; value in parentheses) [µM] | Bs ED50 (B. subtilis; 12 hours) | Bs ED50 (B. subtilis; value in parentheses) [µM] | HEK 293 (HEK293 cells) [µg/mL] | HEK 293 (HEK293 cells; value in parentheses) [µM] | Sa ED50 (S. aureus) [µg/mL] | Sa ED50 (S. aureus; value in parentheses) [µM] | Ms ED50 (Mycobacterium smegmatis; 48 hours) [µg/mL] | Ms ED50 (Mycobacterium smegmatis; value in parentheses) [µM]
CC(C)CCCC(C)CCOc1ccnc(NC(P(=O)(O)O)P(=O)(O)O)c1 (centres unmarked) [Compound 95, (((4-((3,7-Dimethyloctyl)oxy)pyridin-2-yl)amino)methylene)bisphosphonic acid] | 2.5 | 5.2 | 110 µg/mL | 230 | 630 | 1300 | 69 | 140 | 79 | 160
CC(C)CCCC(C)CCOc1cc(NCC(P(=O)(O)O)P(=O)(O)O)ccn1 (centres unmarked) [Compound 87, (2-((2-((3,7-Dimethyloctyl)oxy)pyridin-4-yl)amino)ethane-1,1-diyl)bis(phosphonic acid)] | 3.2 | 7.3 | 21 µg/mL | 48 | 530 | 1200 | 35 | 80 | 75 | 170
CC(C)=CCC/C(C)=C/Cc1ccc[n+](CC(P(=O)([O-])O)P(=O)(O)O)c1 (centres unmarked) [Compound 103, 3-[(2E)-3,7-dimethylocta-2,6-dien-1-yl]-1-(2-hydrogenphosphonato-2-phosphonoethyl)pyridin-1-ium] | – | – | ~ 9.2 μg/mL | – | – | – | – | – | – | –
CC(C)CCCC(C)c1cnc(NCC(P(=O)(O)O)P(=O)(O)O)s1 (centres unmarked) [Compound 94, (2-((5-(6-Methylheptan-2-yl)thiazol-2-yl)amino)ethane-1,1-diyl)bis(phosphonic acid)] | 11 | 28 | 100 µg/mL | 250 | – | – | 56 | 140 | 96 | 240
CC(C)CCOc1ccc[n+](CC(P(=O)([O-])O)P(=O)(O)O)c1 (centres unmarked) [Compound 91, Hydrogen (2-(3-(isopentyloxy)pyridin-1-ium-1-yl)-1-phosphonoethyl)phosphonate] | 8.6 | 24 | 41 µg/mL | 120 | – | – | 17 | 48 | 65 | 180
CC(C)CCCC(C)CCCC(C)CCCC(C)CCOc1ccc[n+](CC(P(=O)([O-])O)P(=O)(O)O)c1 (centres unmarked) [Compound 97, Hydrogen(1-phosphono-2-(3-((3,7,11,15-tetramethylhexadecyl)oxy)pyridin-1-ium-1-yl)ethyl)phosphonate] | 7.7 | 14 | 260 µg/mL | 460 | – | – | 25 | 44 | 210 | 370
CC(C)CCCC(C)CCOc1cccc(NCC(P(=O)(O)O)P(=O)(O)O)n1 (centres unmarked) [Compound 92, (2-((6-((3,7-Dimethyloctyl)oxy)pyridin-2-yl)amino)ethane-1,1-diyl)bis(phosphonic acid)] | 4.2 | 9.6 | 75 µg/mL | 170 | – | – | 60 | 140 | 200 | 460
CC(C)CCCC(C)CCNc1ccc[n+](CC(P(=O)([O-])O)P(=O)(O)O)c1 (centres unmarked) [Compound 78, Hydrogen(2-(3-((3,7-dimethyloctyl)amino)pyridin-1-ium-1-yl)-1-phosphonoethyl) phosphonate] | 0.8 | 1.9 | 2.4 µg/mL | 5.7 | 186 | 440 | 13 | 31 | 5.5 | 13
CCCCCCCCCCCCCc1ccc[n+](CC(P(=O)([O-])O)P(=O)(O)O)c1 (centres unmarked) [Compound 83, Hydrogen (1-phosphono-2-(3-tridecylpyridin-1-ium-1-yl)ethyl)phosphonate] | 2.2 | 4.9 | 5.5 µg/mL | 12 | 22 | 48 | 30 | 67 | 7.2 | 16
O=P(O)(O)C(CNc1nccs1)P(=O)(O)O [Compound 93] | 2.3 | 8.0 | 97 µg/mL | 340 | – | – | 230 | 800 | 290 | 1000
CC(C)CCCC(C)CCCn1cc[n+](CC(P(=O)([O-])O)P(=O)(O)O)c1 (centres unmarked) [Compound 75, Hydrogen(2-(1-(4,8-dimethylnonyl)-1H-imidazol-3-ium-3-yl)-1-phosphonoethyl) phosphonate] | 1.8 | 4.4 | 1.7 µg/mL | 4.1 | 181 | 440 | 26 | 63 | 1.4 | 3.4
CC(C)CCCC(C)CCSc1ccc[n+](CC(P(=O)([O-])O)P(=O)(O)O)c1 (centres unmarked) [Compound 79, Hydrogen(2-(3-((3,7-dimethyloctyl)thio)pyridin-1-ium-1-yl)-1-phosphonoethyl) phosphonate] | 0.4 | 0.9 | 2.8 µg/mL | 6.4 | 224 | 510 | 18 | 41 | 6.2 | 14
CC(C)CCCC(C)CCc1cnc(NCC(P(=O)(O)O)P(=O)(O)O)s1 (centres unmarked) [Compound 88, (2-((5-(3,7-Dimethyloctyl)thiazol-2-yl)amino)ethane-1,1-diyl)bis(phosphonic acid)] | 7.4 | 17 | 21 µg/mL | 49 | – | – | 36 | 84 | 150 | 350
CC(C)CCCC(C)CCn1cc[n+](CC(P(=O)([O-])O)P(=O)(O)O)c1 (centres unmarked) [Compound 82, Hydrogen(2-(1-(3,7-dimethyloctyl)-1H-imidazol-3-ium-3-yl)-1-phosphonoethyl) phosphonate] | 4.3 | 11 | 4.6 µg/mL | 12 | 170 | 420 | 34 | 86 | 15 | 38
CC(C)CCCC(C)CCOc1ccnc(NCC(P(=O)(O)O)P(=O)(O)O)c1 (centres unmarked) [Compound 96, (2-((4-((3,7-Dimethyloctyl)oxy)pyridin-2-yl)amino)ethane-1,1-diyl)bis(phosphonic acid)] | 11 | 26 | 180 µg/mL | 420 | – | – | 52 | 120 | 100 | 240
CC(C)CCCC(C)CCSc1cc[n+](CC(P(=O)([O-])O)P(=O)(O)O)cc1 (centres unmarked) [Compound 85, Hydrogen(2-(4-((3,7-dimethyloctyl)thio)pyridin-1-ium-1-yl)-1-phosphonoethyl) phosphonate] | 1.1 | 2.5 | 7.0 µg/mL | 16 | 440 | 1000 | 31 | 71 | 70 | 160
(((6-(4,8-Dimethylnonyl)pyridin-2-yl)amino)methylene)bis(phosphonic acid) [Compound 89] | 3.0 | 6.9 | 26 µg/mL | 60 | 480 | 1100 | 32 | 73 | 93 | 210
CC(C)CCCC(C)CCc1csc(NCC(P(=O)(O)O)P(=O)(O)O)n1 (centres unmarked) [Compound 86, (2-((4-(3,7-Dimethyloctyl)thiazol-2-yl)amino)ethane-1,1-diyl)bis(phosphonic acid)] | 5.0 | 12 | 8.3 µg/mL | 19 | – | – | 23 | 54 | 150 | 350
CC(C)CCCC(C)CCCC(C)CCOc1ccc[n+](CC(P(=O)([O-])O)P(=O)(O)O)c1 (centres unmarked) [Compound 90, Hydrogen(1-phosphono-2-(3-((3,7,11-trimethyldodecyl)oxy)pyridin-1-ium-1-yl)ethyl) phosphonate] | 5.0 | 10 | 36 µg/mL | 73 | – | – | 22 | 45 | 91 | 180
CC(C)CCCC(C)CCc1ccc[n+](CC(P(=O)([O-])O)P(=O)(O)O)c1 (centres unmarked) [Compound 102, Hydrogen (2-(3-(3,7-dimethyloctyl)pyridin-1-ium-1-yl)-1-phosphonoethyl) phosphonate] | – | – | 1.9 µg/mL | – | – | – | – | – | – | –

From article PMC6427912 (Journal of medicinal chemistry, 2019)
